The values below come from patent US8198307B2, “Imidazole derivatives having aryl piperidine substituent, method for preparation thereof and pharmaceutical compositions containing same” (Korea Research Institute of Chemical Technology, priority 2007, dated 2012).

This assay has as its target T1, MCH R1 (melanine-concentrating hormone receptor-1) (Homo sapiens, UniProt Q99705).
T1 construct: purchased Euroscreen, Gosselies, Belgium
In words: Inhibitory effects on MCH R1 binding (Eu-MCH time-resolved fluorescence binding assay). In outline: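 Receptor membranes were incubated 90 min at room temperature with 2 nM Eu-MCH and test compound (1 nM–10 μM final) in 25 mM HEPES pH 7.4, 5 mM MgCl2, 1 mM CaCl2, 0.5% BSA, then filter-washed. Nonspecific binding was defined with 0.5 μM MCH. Time-resolved fluorescence (ex 340/em 615 nm) gave percent inhibition of specific binding.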

[1] abbreviates: concentration inhibiting the binding of MCH (Eu-MCH, 2 nM) to MCH R1 by 50% in vitro, TRF readout, test range 1 nM to 10 μM, read-out: IC50.

Read-outs that look alike come from different tables or passages of the source. A value given as a limit tells only on which side of the number the result lay.

T1 sequence (Q99705 whole entry, species assumed): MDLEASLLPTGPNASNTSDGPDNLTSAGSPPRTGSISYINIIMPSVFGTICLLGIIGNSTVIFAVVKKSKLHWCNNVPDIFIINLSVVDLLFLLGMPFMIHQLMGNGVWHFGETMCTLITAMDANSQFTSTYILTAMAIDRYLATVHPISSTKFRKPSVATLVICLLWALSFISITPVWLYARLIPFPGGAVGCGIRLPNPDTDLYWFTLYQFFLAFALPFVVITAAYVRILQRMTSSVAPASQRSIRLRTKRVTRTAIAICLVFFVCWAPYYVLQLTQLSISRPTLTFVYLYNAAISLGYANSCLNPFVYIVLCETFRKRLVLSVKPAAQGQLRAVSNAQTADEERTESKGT

Turning to `CC(=O)Nc1cccc(C2CCN(CCCn3c(-c4ccccc4)nc4cc(Br)c(C)nc43)CC2)c1` [Example 68, 6-bromo-5-methyl-2-phenyl-3-{3-[4-(3-acetylaminophenyl)piperidin-1-yl]propyl}-3H-imidazo[4,5-b]pyridine], the IC50 under setting [1] came out at 110 nM.
Take `CC(=O)Nc1cccc(C2CCN(CCCn3c(-c4ccccc4)nc4ccc(C)nc43)CC2)c1` [Example 69, 5-methyl-2-phenyl-3-{3-[4-(3-acetylaminophenyl)piperidin-1-yl]propyl}-3H-imidazo[4,5-b]pyridine]: under setting [1], the IC50 worked out at 22 nM.
As to `CC(=O)Nc1cccc(C2CCN(CCCn3c(-c4ccc5c(c4)OCO5)nc4ccccc43)CC2)c1` [Example 70, 2-(benzo[1,3]dioxol-5-yl)-1-{3-[4-(3-acetylaminophenyl)piperidin-1-yl]propyl}-1H-benzimidazole], the concentration for half-maximal inhibition (IC50) under setting [1] was found to be 12 nM.
Take `CC(C)C(=O)Nc1cccc(C2CCN(CCn3c(-c4ccc(Cl)cc4)nc4ccccc43)CC2)c1` [Example 71, 2-(4-chlorophenyl)-1-{2-[4-(3-isobutyrylaminophenyl)piperidin-1-yl]ethyl}-1H-benzimidazole]: the IC50 under setting [1] was more than 10000 nM.
On to `CC(=O)Nc1cccc(C2CCN(CCCn3c(-c4ccccc4)nc4ccncc43)CC2)c1` [Example 72, 2-phenyl-3-{3-[4-(3-acetylaminophenyl)piperidin-1-yl]propyl}-3H-imidazo[4,5-c]pyridine], for which the 50% inhibitory concentration (IC50) under setting [1] was found to be 260 nM.
On to `CC(=O)Nc1cccc(C2CCN(CCCn3c(-c4ccccc4)nc4nc(C)c(Br)cc43)CC2)c1` [Example 74], for which the IC50 under setting [1] amounted to 680 nM.
On the same count and under the same terms, to `CC(=O)Nc1cccc(C2CCN(CCCn3c(-c4ccccc4)nc4nc(C)ccc43)CC2)c1` [Example 75] belongs 23 nM; to `COC(=O)c1cccc(-c2nc3ccccc3n2CCCN2CCC(c3cccc(NC(C)=O)c3)CC2)c1` [Example 76, 2-(3-methoxycarbonylphenyl)-1-{3-[4-(3-acetylaminophenyl)piperidin-1-yl]propyl}-1H-benzimidazole], 60 nM; to `CCc1ccc(-c2nc3ccccc3n2CCCN2CCC(c3cccc(NC(C)=O)c3)CC2)cc1` [Example 77, 2-(4-ethylphenyl)-1-{3-[4-(3-acetylaminophenyl)piperidin-1-yl]propyl}-1H-benzimidazole], 60 nM.
On to `CC(=O)Nc1cccc(C2CCN(CCCn3c(-c4ccc(C#N)cc4)nc4cc(C)c(C)cc43)CC2)c1` [Example 78, 2-(4-cyanophenyl)-1-{3-[4-(3-acetylaminophenyl)piperidin-1-yl]propyl}-5,6-dimethyl-1H-benzimidazole], for which the IC50 under setting [1] stood at 100 nM.
Take `CC(=O)Nc1cccc(C2CCN(CCCn3c(-c4cccc(C)c4)nc4ccccc43)CC2)c1` [Example 79, 2-(m-tolyl)-1-{3-[4-(3-acetylaminophenyl)piperidin-1-yl]propyl}-1H-benzimidazole]: the IC50 under setting [1] was determined as 20 nM.
`CC(=O)Nc1cccc(C2CCN(CCCn3c(-c4ccc(F)cc4Cl)nc4cc(C)c(C)cc43)CC2)c1` [Example 80, 2-(2-chloro-4-fluorophenyl)-1-{3-[4-(3-acetylaminophenyl)piperidin-1-yl]propyl}-5,6-dimethyl-1H-benzimidazole]: the IC50 under setting [1] is 80 nM.
`CC(=O)Nc1cccc(C2CCN(CCCn3c(-c4ccc(Cl)cc4)nc4cc(C#N)ccc43)CC2)c1` [Example 81, 2-(4-chlorophenyl)-1-{3-[4-(3-acetylaminophenyl)piperidin-1-yl]propyl}-5-cyano-1H-benzimidazole]: the IC50 under setting [1] amounted to 70 nM.
On to `CC(=O)Nc1cccc(C2CCN(CCCn3c(-c4ccc(Cl)cc4)nc4ccc(C#N)cc43)CC2)c1` [Example 82, 2-(4-chlorophenyl)-1-{3-[4-(3-acetylaminophenyl)piperidin-1-yl]propyl}-6-cyano-1H-benzimidazole], for which the concentration for half-maximal inhibition (IC50) under setting [1] came to 70 nM.
For `CC(=O)Nc1cccc(C2CCN(CCCn3c(-c4ccc(Cl)cc4)nc4cc(F)ccc43)CC2)c1` [Example 83, 2-(4-chlorophenyl)-1-{3-[4-(3-acetylaminophenyl)piperidin-1-yl]propyl}-5-fluoro-1H-benzimidazole], the IC50 under setting [1] stood at 70 nM.
The same measure, in the same setting: to `CC(=O)Nc1cccc(C2CCN(CCCn3c(-c4ccc(F)cc4)nc4cc(Cl)ccc43)CC2)c1` [Example 84, 2-(4-fluorophenyl)-1-{3-[4-(3-acetylaminophenyl)piperidin-1-yl]propyl}-5-chloro-1H-benzimidazole] belongs 50 nM.
Take `CC(=O)Nc1cccc(C2CCN(CCCn3c(-c4ccc(Cl)cc4)nc4cc([N+](=O)[O-])ccc43)CC2)c1` [Example 85, 2-(4-chlorophenyl)-1-{3-[4-(3-acetylaminophenyl)piperidin-1-yl]propyl}-5-nitro-1H-benzimidazole]: the half-inhibitory concentration (IC50) is 70 nM.
As for `COc1cc(Cl)ccc1-c1nc2cc(C)c(C)cc2n1CCCN1CCC(c2cccc(NC(C)=O)c2)CC1` [Example 86, 2-(4-chloro-2-methoxyphenyl)-1-{3-[4-(3-acetylaminophenyl)piperidin-1-yl]propyl}-5,6-dimethyl-1H-benzimidazole], the IC50 under setting [1] was found to be 110 nM.
`COc1ccc(Cl)cc1-c1nc2cc(C)c(C)cc2n1CCCN1CCC(c2cccc(NC(C)=O)c2)CC1` [Example 87, 2-(5-chloro-2-methoxyphenyl)-1-{3-[4-(3-acetylaminophenyl)piperidin-1-yl]propyl}-5,6-dimethyl-1H-benzimidazole]: under setting [1], the IC50 stood at 70 nM.
For `CC(=O)Nc1cccc(C2CCN(CCCn3c(C)nc4ccccc43)CC2)c1` [Example 88, 2-methyl-1-{3-[4-(3-acetylaminophenyl)piperidin-1-yl]propyl}-1H-benzimidazole], the concentration for half-maximal inhibition (IC50) under setting [1] is more than 10000 nM.
For the molecule `CC(=O)Nc1cccc(C2CCN(CCCn3c(C)nc4cc(C)c(C)cc43)CC2)c1` [Example 89, 2-methyl-1-{3-[4-(3-acetylaminophenyl)piperidin-1-yl]propyl}-5,6-dimethyl-1H-benzimidazole], the IC50 under setting [1] came out at 60 nM.
With `Cc1nc2ccccc2n1CCCN1CCC(c2cccc(NC(=O)C(C)C)c2)CC1` [Example 90, 2-methyl-1-{3-[4-(3-isobutyrylaminophenyl)piperidin-1-yl]propyl}-1H-benzimidazole], the IC50 under setting [1] came to 80 nM.
Turning to `CC(=O)Nc1cccc(C2CCN(CCCn3c(C)nc4ccc(C)nc43)CC2)c1` [Example 91, 2,5-dimethyl-3-{3-[4-(3-acetylaminophenyl)piperidin-1-yl]propyl}-3H-imidazo[4,5-b]pyridine], under setting [1], the IC50 was determined as 2800 nM.
As to `CC(=O)Nc1cccc(C2CCN(CCCn3c(C)nc4cc(Br)c(C)nc43)CC2)c1` [Example 92, 6-bromo-2,5-dimethyl-3-{3-[4-(3-acetylaminophenyl)piperidin-1-yl]propyl}-3H-imidazo[4,5-b]pyridine], under setting [1], the IC50 turned out to be 188 nM.
As for `CCc1nc2cc(Br)c(C)nc2n1CCCN1CCC(c2cccc(NC(C)=O)c2)CC1` [Example 93, 6-bromo-2-ethyl-5-methyl-3-{3-[4-(3-acetylaminophenyl)piperidin-1-yl]propyl}-3H-imidazo[4,5-b]pyridine], the IC50 under setting [1] was found to be 98 nM.
As for `CCCCc1nc2cc(Br)c(C)nc2n1CCCN1CCC(c2cccc(NC(C)=O)c2)CC1` [Example 94, 6-bromo-2-butyl-5-methyl-3-{3-[4-(3-acetylaminophenyl)piperidin-1-yl]propyl}-3H-imidazo[4,5-b]pyridine], under setting [1], the half-maximal inhibitory concentration (IC50) stood at 3 nM.
